Source: PubChem BioAssay AID328 (DTP/NCI, 2004)
Where “and” joins values, the source holds several entries; their conditions need not be identical. Equal entries are not always repeated. Inconclusive results and toxic doses are left out. How the source made its calls: active means survival T/C of 150% or more; inactive means T/C below 125% in these data.

Tested on: BDF1 mice, P388 leukemia ip, median survival T/C
Experiment: NCI In Vivo Anticancer Drug Screen. Data for tumor model P388 Leukemia (intraperitoneal) in B6D2F1 (BDF1) mice
Conditions: endpoint: median survival time, higher = longer survival
Method: The antitumor activity of compounds was measured in mice bearing transplantable tumors. Survival or tumor size were measured and the results are expressed as the measurement made in the treated group (T) divided by the measurement made in the vehicle treated control group (C). The tumor model used in this assay is P388 Leukemia (intraperitoneal) in B6D2F1 (BDF1) mice

[1] = dose: 50.0 mg/kg/injection, schedule: Q01DX009 (ip), vehicle: saline with Tween-80
[2] = dose: 100.0 mg/kg/injection, schedule: Q01DX009 (ip), vehicle: saline with Tween-80
[3] = dose: 200.0 mg/kg/injection, schedule: Q01DX009 (ip), vehicle: saline with Tween-80
[4] = dose: 100.0 mg/kg/injection, schedule: Q04DX003 (ip), vehicle: saline with Tween-80
[5] = dose: 200.0 mg/kg/injection, schedule: Q04DX003 (ip), vehicle: saline with Tween-80
[6] = dose: 400.0 mg/kg/injection, schedule: Q04DX003 (ip), vehicle: saline with Tween-80
[7] = dose: 12.5 mg/kg/injection, schedule: Q01DX009 (ip), vehicle: Klucel (hydroxypropylcellulose) (HPC)
[8] = dose: 25.0 mg/kg/injection, schedule: Q01DX009 (ip), vehicle: Klucel (hydroxypropylcellulose) (HPC)
[9] = dose: 25.0 mg/kg/injection, schedule: Q04DX003 (ip), vehicle: Klucel (hydroxypropylcellulose) (HPC)
[10] = dose: 50.0 mg/kg/injection, schedule: Q01DX009 (ip), vehicle: Klucel (hydroxypropylcellulose) (HPC)
[11] = dose: 50.0 mg/kg/injection, schedule: Q04DX003 (ip), vehicle: Klucel (hydroxypropylcellulose) (HPC)
[12] = dose: 100.0 mg/kg/injection, schedule: Q04DX003 (ip), vehicle: Klucel (hydroxypropylcellulose) (HPC)
[13] = dose: 25.0 mg/kg/injection, schedule: Q01DX009 (ip), vehicle: saline
[14] = dose: 50.0 mg/kg/injection, schedule: Q01DX009 (ip), vehicle: saline

Measured: T/C

CN(C)CCCNc1cc(/C=C/c2cccc3ccccc23)nc2ccccc12
inactive: [1] 95 % of control | [2] 88 % of control | [3] 101 % of control

NC(=S)c1cn(C2OC(CO)C(O)C2O)c2ncnc(N)c12 (configuration not stated)
inactive: dose: 5.0 mg/kg/injection, schedule: Q01DX009 (ip), vehicle: saline with Tween-80 100 % of control
active: dose: 3.3 mg/kg/injection, schedule: Q01DX009 (ip), vehicle: saline with Tween-80 166 % of control

Cc1sc2c(c1-c1ccccc1)C(=O)CCCN2
inactive: dose: 25.0 mg/kg/injection, schedule: Q01DX005 (ip), vehicle: saline with Tween-80 108 % of control | dose: 50.0 mg/kg/injection, schedule: Q01DX005 (ip), vehicle: saline with Tween-80 101 % of control | dose: 50.0 mg/kg/injection, schedule: Q04DX003 (ip), vehicle: saline with Tween-80 107 % of control | dose: 100.0 mg/kg/injection, schedule: Q01DX005 (ip), vehicle: saline with Tween-80 118 % of control | [4] 107 % of control | dose: 200.0 mg/kg/injection, schedule: Q01DX005 (ip), vehicle: saline with Tween-80 118 % of control | [5] 105 % of control | [6] 105 % of control

C[P+](c1ccc(F)cc1)(c1ccc(F)cc1)c1ccc(F)cc1
inactive: [7] 86 % of control | [8] 104 % of control | [9] 104 % of control | [10] 109 % of control | [11] 90 % of control

C#CC(O)C(CC)CCCC (configuration not stated)
inactive: [4] 100 % of control | [5] 100 % of control | [6] 100 % of control

CCC(C)Nc1ccccc1 (configuration not stated)
inactive: [11] 95 % of control | [12] 100 % of control | dose: 200.0 mg/kg/injection, schedule: Q04DX003 (ip), vehicle: Klucel (hydroxypropylcellulose) (HPC) 108 % of control

CC1(C)N=C(N)N=C(N)N1c1ccc(OCc2ccc(C(=O)Nc3cccc(S(=O)(=O)F)c3)cc2)c(Cl)c1
active: dose: 6.25 mg/kg/injection, schedule: Q01DX009 (ip), vehicle: Klucel (hydroxypropylcellulose) (HPC) 206 % of control | dose: 6.25 mg/kg/injection, schedule: Q04DX003 (ip), vehicle: Klucel (hydroxypropylcellulose) (HPC) 163 % of control | [7] 247 % of control | dose: 12.5 mg/kg/injection, schedule: Q04DX003 (ip), vehicle: Klucel (hydroxypropylcellulose) (HPC) 162 % of control and 184 % of control | [8] 308 % of control | [9] 186 % of control and 223 % of control | [11] 263 % of control and 189 % of control
inactive: [10] 110 % of control | dose: 100.0 mg/kg/injection, schedule: Q01DX009 (ip), vehicle: Klucel (hydroxypropylcellulose) (HPC) 95 % of control | [12] 95 % of control and 119 % of control

O=C1NC(c2ccccc2)(c2ccccc2)C(=O)N1CCBr
inactive: dose: 12.5 mg/kg/injection, schedule: Q01DX009 (ip), vehicle: saline 105 % of control and 121 % of control | [13] 105 % of control and 113 % of control | [14] 107 % of control and 113 % of control | dose: 50.0 mg/kg/injection, schedule: Q04DX003 (ip), vehicle: saline 107 % of control

CCP(=Nc1cc(C(c2ccccc2)(c2ccccc2)c2ccccc2)cc(C(C)(C)C)c1O)(c1ccccc1)c1ccccc1
inactive: [1] 107 % of control | [2] 116 % of control | [3] 89 % of control

Cc1ccn(C)c(=O)c1
inactive: [13] 86 % of control | [14] 86 % of control | dose: 100.0 mg/kg/injection, schedule: Q01DX009 (ip), vehicle: saline 86 % of control and 100 % of control | dose: 200.0 mg/kg/injection, schedule: Q01DX009 (ip), vehicle: saline 105 % of control

Cc1cc2nc3n(c2cc1C)C(C)(C)N=C(N)N3
inactive: [1] 102 % of control | [2] 112 % of control
